Assay results taken from patent US11390637B2, “Salts of antiviral phosphonate analogues and process for preparation thereof” (CIPLA LIMITED, priority 2017, dated 2022).

Columns and labels:
[1] = In-vitro intrinsic dissolution of 200 mg pellets of API without excipients; assay type: physicochemical; details: Table 8, 200 mg pellet, 0.01N HCl, 37° C., paddle 75 rpm
Description: A tableting mixture (200 mg) comprising solely salts of (((1-(6-amino-9H-purin-9-yl)propan-2-yloxy)methyl) (phenoxy) phosphoryloxy) methyl pivalate-prepared according to any one of the examples 1 to 10 (i.e. with no excipients) was prepared and compressed to a pellet using an automatic KBR press operating at a compression pressure of 2 tones for 2 minutes.
Similarly a tableting mixture (200 mg) comprising a solely TAF (i.e. with no excipients) was prepared and compressed to a pellet using an automatic KBR press operating at a compression pressure of 2 tones for 2 minutes.
A tableting mixture (200 mg) comprising solely TDF (i.e. with no excipients) was prepared and compressed to a pellet using an automatic KBR press operating at a compression pressure of 2 tones for 2 minutes.
In-vitro dissolution studies were performed on the 200 mg pellet in a LAB INDIA DISSO 2000.
The pellet was fixed in a PFTE holder, such that only the pellet surface came into contact with the dissolution medium. The PFTE loaded holder was placed in the dissolution vessel containing 900 ml of 0.1M of HCl having […] at 37±0.5° C. Two pellets were measured for each run of the design of the experiments. Stirring was performed with a paddle rotating at 75 rpm. […]
Dissolution Media: 0.01N HCl
Bath temperature: 37.5° C.
Sample Preparation: Pellets were prepared by pressing sample with 2 ton pressure for 2 min
Note: Aliquots were analysed on HPLC.
The concentration of (((1-(6-amino-9H-purin-9-yl)propan-2-yloxy)methyl) (phenoxy) phosphoryloxy) methyl pivalate was quantified by HPLC UV method at a maximum wavelength of 300 nm under the conditions as specified below:
Standard Preparation: 25 mg standard dissolved to 25 ml with dissolution medium. 5 ml of this solution diluted to 25 ml with dissolution medium. Further 5 ml of this solution was diluted to 10 ml with diluent.
Sample Preparation: 200 mg of Sample pellets were prepared and subjected to dissolution. 10 ml of Aliquot was removed from the dissolution basket at predetermined time intervals. 5 ml of these aliquot was diluted to 10 ml with Diluent.
200 mg of input API of fumarate salt of (((1-(6-amino-9H-purin-9-yl)propan-2-yloxy)methyl) (phenoxy) phosphoryloxy) methyl pivalate used for pellet preparation.
The percentage of (((1-(6-amino-9H-purin-9-yl)propan-2-yloxy)methyl) (phenoxy) phosphoryloxy) methyl pivalate (TD), Tenofovir Alafenamide (TAF) and Tenofovir Disoproxil (TDF) released from the respective fumarate salt tablet were plotted against time as shown in FIG. 19. The intrinsic dissolution rate was derived from the slope of this curve.
To measure the intrinsic dissolution of the Salts of (((1-(6-amino-9H-purin-9-yl)propan-2-yloxy)methyl) (phenoxy) phosphoryloxy) methyl pivalate, samples were measured to compare the influence of the different parameter settings. At appropriate time intervals, an automated sample collector removes aliquots from the dissolution medium for analysis. The time interval for sampling can vary, for example, from 5 to 120 minutes, depending on the properties of the drug and dissolution medium used. Suitable dissolution equipment for these operations includes LAB INDIA DISSO 2000. Bath temperature—37.5° C.
200 mg of input API of each fumarate, oxalate, phosphate, citrate, succinate and tartrate Salts of (((1-(6-amino-9H-purin-9-yl)propan-2-yloxy)methyl) (phenoxy) phosphoryloxy) methyl pivalate used for pellet preparation.
The percentage of (((1-(6-amino-9H-purin-9-yl)propan-2-yloxy)methyl) (phenoxy) phosphoryloxy) methyl pivalate released from the respective salts tablet were plotted against time as shown in FIG. 20. The intrinsic dissolution rate was derived from the slope of this curve.

[2] = Solubility in physiologically acceptable solvents (statement, no method described); details: in words
[3] = Hygroscopicity (statement, no method described); assay type: physicochemical; details: in words

## CC(Cn1cnc2c(N)ncnc21)OCP(=O)(OCOC(=O)C(C)(C)C)Oc1ccccc1.O=C(O)CC(O)(CC(=O)O)C(=O)O (stereo not shown) [Citrate, (((1-(6-amino-9H-purin-9-yl)propan-2-yloxy)methyl) (phenoxy)phosphoryloxy) methyl pivalate citric acid salt]
[1]; 5 min
  % release of Compound (I) from the respective Salts: 4%
[1]; 15 min
  % release of Compound (I) from the respective Salts: 12%
[1]; 30 min
  % release of Compound (I) from the respective Salts: 23%
[1]; 45 min
  % release of Compound (I) from the respective Salts: 33%
[1]; 60 min
  % release of Compound (I) from the respective Salts: 42%
[1]; 90 min
  % release of Compound (I) from the respective Salts: 63%
[1]; 120 min
  % release of Compound (I) from the respective Salts: 70%
[1]; 150 min
  % release of Compound (I) from the respective Salts: 66%
[1]; 180 min
  % release of Compound (I) from the respective Salts: 67%
[1]; 210 min
  % release of Compound (I) from the respective Salts: 66%
[1]; 240 min
  % release of Compound (I) from the respective Salts: 69%
[2]
  solubility in physiologically acceptable solvents: readily soluble
[3]
  hygroscopicity: not hygroscopic
